Experimental data reported in ChEMBL document CHEMBL1134947, “A mechanism-based probe for gp120-Hydrolyzing antibodies” (Bioorg Med Chem Lett, 2002).
Square brackets hold non-standard residues; d marks the D form. Peptide text beside a SMILES is read from it. * marks the point of attachment. X2 = N=C(N)c1ccc(C(N*)P(=O)(Oc2ccccc2)Oc2ccccc2)cc1; X1 = O=C(CCCCC1SCC2NC(=O)NC21)NCCNC(=O)CCS*; Mpa = O=C(O)CCS

Target: T1, Serine protease 1 (Bos taurus, UniProt P00760)
T1 sequence (P00760 whole entry): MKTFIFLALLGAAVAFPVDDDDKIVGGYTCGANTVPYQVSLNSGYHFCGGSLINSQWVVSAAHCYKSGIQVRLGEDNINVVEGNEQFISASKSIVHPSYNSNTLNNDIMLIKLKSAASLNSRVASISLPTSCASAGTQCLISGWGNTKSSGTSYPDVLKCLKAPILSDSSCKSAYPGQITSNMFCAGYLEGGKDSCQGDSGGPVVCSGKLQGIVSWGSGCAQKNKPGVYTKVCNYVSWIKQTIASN
Assay: Concentration required for the inhibition of catalytic activity of bovine trypsin

| Compound | IC50 [µM] |
| --- | --- |
| CC[C@H](C)[C@H](NC(=O)[C@H](CCC(N)=O)NC(=O)[C@H](CCCCN)NC(=O)CCSSCCC(=O)NCCNC(=O)CCCCC1SCC2NC(=O)NC21)C(=O)N[C@H](C(=O)N[C@@H](CC(N)=O)C(=O)N[C@@H](CCSC)C(=O)N[C@@H](Cc1c[nH]c2ccccc12)C(=O)N[C@@H](CCC(N)=O)C(=O)N[C@@H](CCC(=O)O)C(=O)N[C@H](C(=O)NCC(=O)NC(c1ccc(C(=N)N)cc1)P(=O)(Oc1ccccc1)Oc1ccccc1)C(C)C)[C@@H](C)CC (some centres not stated) ([Mpa](X1)KQIINMWQEVG-X2) | 30 |
| N=C(N)c1ccc(C(NC(=O)CCSSCCC(=O)NCCNC(=O)CCCCC2SCC3NC(=O)NC32)P(=O)(Oc2ccccc2)Oc2ccccc2)cc1 (configuration not stated) | 31 |
